According to patent US11691984B2, “Compounds and methods for DCAF-mediated protein degradation” (The Scripps Research Institute, priority 2018, dated 2023):
Blank lines part the entries; values can stand above or below the compound they belong to. Residues, ends and D or L forms follow the SMILES beside them. *: point of attachment. Cbz = O=C(OCc1ccccc1)*

Columns and labels:
FLAG-FKBP12_NLS [1] = molecular target: T1, FLAG-FKBP12_NLS (Homo sapiens, UniProt P62942); experiment: Anti-FLAG western blot of stably expressed nuclear FKBP12 (FLAG-FKBP12_NLS) in HEK293T cells; format: cell-based; parameters: expressed in transfected cells; host or cells: HEK293T, MDA-MB-231 and HEK293 DCAF16+/+ and DCAF16-/- clones (lentiviral pCDH-CMV-MCS-EF1-Puro); details: for nuclear FKBP12 (FKBP12_NLS) protein level: 2 μM, 8 or 24 h; for effect of inhibitor on KB02-SLF-mediated loss of FKBP12_NLS: KB02-SLF 1 μM with MG132 10 μM or MLN4924 1 μM
T1 sequence (P62942 whole entry): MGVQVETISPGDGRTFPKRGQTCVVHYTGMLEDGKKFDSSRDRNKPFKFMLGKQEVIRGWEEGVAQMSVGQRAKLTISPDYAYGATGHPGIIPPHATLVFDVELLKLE
Excerpt: (§1) FLAG-tagged variants of FKBP12 (FLAG-FKBP12) or (2) FKBP12 with a C-terminal nuclear localization sequence (FLAG-FKBP12_NLS) were then stably expressed in HEK293T cells to provide cell models for evaluating cytosolic- and nuclear-localized E3-mediated degradation pathways, respectively.
(§2) FLAG-FKBP12 or FLAG-FKBP12_NLS lentivirus was generated by co-transfection of FLAG-FKBP12 or FLAG-FKBP12_NLS, pCMV-dR8.2 and pMD2.G into HEK 293T cells using FuGene 6 transfection reagent (Promega). Virus-containing medium were collected 48 h after transfection, filtered with […] filter, and used to transduce HEK293T and MDA-MB-231 cells in the presence of 10 μg/mL polybrene (Santa Cruz). 72 h after transduction, puromycin (2 μg/mL) was added to cells. HEK293T cells stably expressing FLAG-FKBP12 or FLAG-FKBP12_NLS were obtained after puromycin selection for 7 days. HEK293T cells stably expressing pCDH empty vector were generated in parallel as control.
shRNA lentivirus was generated by co-transfection of shRNA-containing vector, pCMV-dR8.2 and pMD2.G into HEK 293T cells using FuGene 6 transfection reagent (Promega). Virus-containing medium were collected 48 h after transfection and used to transiently transduce HEK293T cells stably expressing FLAG-FKBP12_NLS for 48 h. Lentiviral shRNAs targeting human DCAF16 or DTL were in pLKO.1 vector and purchased from Sigma. The sequences of shRNAs is described below.
(§3) Cells were collected and lysed in 1% NP-40 lysis buffer (25 mM Tris-HCl pH 7.4, 150 mM NaCl, 10% glycerol, 1% Nonidet P-40) with complete protease inhibitor cocktail (Roche). Cells were vortexed and sonicated for 5 pulses (40%, 4). The supernatant was collected after centrifugation at 16,000 g for 10 min at 4° C. Protein concentration was determined by DC assay (Bio-Rad). Protein lysate was heated at 95° C. for 5 min in 1× Laemmli sample buffer. Proteins were resolved by 12% or 14% Novex Tris-Glycine Mini Gels (Invitrogen) and transferred to polyvinylidene fluoride (PVDF) membrane (0.2 Bio-Rad). The membrane was blocked with 5% BSA in TBST buffer (0.1% Tween 20, 20 mM Tris-HCl 7.6, 150 mM NaCl) at room temperature for 1 h. The antibody was diluted with fresh 5% BSA in TBST buffer (1:10000 dilution for FLAG, HA and β-Actin, 1:1000 dilution for others) and incubated with membrane (1 h room temperature for FLAG, HA and β-Actin, overnight 4° C. for others). Membrane was washed three times with TBST buffer and incubated with secondary antibody (1:5000 dilution in 5% BSA in TBST) at room temperature for 1 h. Membrane was washed three times with TBST buffer. The chemiluminescence signal in membrane was recorded after developing in ECL or ECL plus western blotting detection reagent using CL-XPosure film (Thermo Scientific). Relative band intensities were quantified using ImageJ.

[2] = molecular target: T2, HA-DCAF16 and FLAG-FKBP12_NLS (Homo sapiens, UniProt P62942+Q9NXF7); experiment: Co-immunoprecipitation of HA-DCAF16 with FLAG-FKBP12_NLS (ternary complex) in HEK293T cells; format: cell-based; details: 5 μM, MG132 10 μM, 2 hours
T2 construct: expressed in transfected cells; host or cells: HEK293T stably expressing FLAG-FKBP12_NLS, transiently transfected with HA-DCAF16 (pRK5)
T2 sequence (Q9NXF7 whole entry): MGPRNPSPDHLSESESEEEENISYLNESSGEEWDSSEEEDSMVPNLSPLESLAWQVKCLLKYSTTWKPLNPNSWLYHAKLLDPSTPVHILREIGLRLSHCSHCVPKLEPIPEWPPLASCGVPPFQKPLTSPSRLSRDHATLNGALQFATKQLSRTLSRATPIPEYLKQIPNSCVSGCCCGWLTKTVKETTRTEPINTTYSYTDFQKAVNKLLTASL
T2 sequence (P62942 2-108): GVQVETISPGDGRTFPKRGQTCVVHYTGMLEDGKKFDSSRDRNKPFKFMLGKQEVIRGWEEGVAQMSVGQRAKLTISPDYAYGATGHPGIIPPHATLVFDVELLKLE
T2 sequence (Q16531 whole entry partner): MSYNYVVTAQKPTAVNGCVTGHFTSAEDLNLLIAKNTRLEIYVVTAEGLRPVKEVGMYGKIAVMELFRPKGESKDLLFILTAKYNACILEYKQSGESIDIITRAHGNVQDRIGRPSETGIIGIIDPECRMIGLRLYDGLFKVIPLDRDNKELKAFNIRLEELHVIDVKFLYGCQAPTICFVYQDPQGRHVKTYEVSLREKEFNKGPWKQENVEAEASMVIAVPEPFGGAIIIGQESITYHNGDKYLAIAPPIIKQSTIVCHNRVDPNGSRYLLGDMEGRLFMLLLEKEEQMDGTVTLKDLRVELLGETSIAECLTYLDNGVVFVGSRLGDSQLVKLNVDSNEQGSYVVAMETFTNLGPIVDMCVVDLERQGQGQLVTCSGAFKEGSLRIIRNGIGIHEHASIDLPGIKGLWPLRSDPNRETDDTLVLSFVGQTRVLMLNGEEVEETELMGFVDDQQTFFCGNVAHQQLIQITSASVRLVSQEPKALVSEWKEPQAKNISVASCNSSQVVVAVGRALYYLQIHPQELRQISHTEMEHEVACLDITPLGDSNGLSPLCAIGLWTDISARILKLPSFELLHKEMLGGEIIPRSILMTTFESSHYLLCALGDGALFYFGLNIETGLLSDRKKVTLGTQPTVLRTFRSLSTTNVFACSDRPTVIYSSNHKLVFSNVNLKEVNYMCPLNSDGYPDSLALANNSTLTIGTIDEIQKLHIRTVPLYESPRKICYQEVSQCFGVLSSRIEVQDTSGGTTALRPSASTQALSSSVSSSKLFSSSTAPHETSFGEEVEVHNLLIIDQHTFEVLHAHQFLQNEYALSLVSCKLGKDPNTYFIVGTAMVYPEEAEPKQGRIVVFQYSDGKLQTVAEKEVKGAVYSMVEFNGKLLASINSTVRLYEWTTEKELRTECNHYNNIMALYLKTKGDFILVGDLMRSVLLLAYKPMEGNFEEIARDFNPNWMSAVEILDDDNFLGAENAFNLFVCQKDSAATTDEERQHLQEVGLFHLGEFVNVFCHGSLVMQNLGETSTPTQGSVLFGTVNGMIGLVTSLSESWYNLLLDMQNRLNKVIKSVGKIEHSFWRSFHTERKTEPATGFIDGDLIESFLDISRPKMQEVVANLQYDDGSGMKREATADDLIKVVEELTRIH
Method: as §3
Cells were collected and lysed in 1% NP-40 lysis buffer with complete protease inhibitor cocktail on ice for 10 min, followed by 5 pulses of sonication (40%, 4). After centrifugation at 16,000 g for 10 min at 4° C., the supernatant was collected. FLAG affinity gel (20 μL slurry per sample) was incubated with protein lysates at 4° C. for 1 h and washed four times with IP washing buffer. The affinity gel was heated at 95° C. for 10 min in 2× Laemmli sample buffer, followed by western blot analysis.

HEK293T cells = experiment: Cell viability assay (Cell Titer Glo); format: cell-based, human; details: 24 hours, read-out: cytotoxicity IC50
Method: HEK293T cells were seeded in 96-well clear bottom white plate (Corning) at 3×10^4 cells per well in 100 μL of DMEM medium and grown for 24 h. The cells were treated with 0.625, 1.25, 2.5, 5, 10, 20 and 40 μM of KB02-SLF or KB02-JQ1 (DMSO stock, final DMEM concentration is 0.1% (v/v)) in 100 μL of DMEM medium for 24 h. 50 μL of Cell Titer Glo reagent (Promega) was added to each well and incubate for 10 min at room temperature. The luminescence was read on CLARIOstar (BMG LAB TECH).

FLAG-FKBP12_NLS [3] = molecular target: T1, FLAG-FKBP12_NLS; experiment: Western blot of stably expressed FLAG-FKBP12_NLS in MDA-MB-231 cells; format: cell-based; parameters: expressed in transfected cells; host or cells: HEK293T, MDA-MB-231 and HEK293 DCAF16+/+ and DCAF16-/- clones (lentiviral pCDH-CMV-MCS-EF1-Puro); details: 8 hours; for effect of inhibitor on degradation of FLAG-FKBP12_NLS in MDA-MB-231 cells: KB02-PEG0-SLF, KB02-SLF or KB02-PEG4-SLF 1 μM
Method: as §2, §3

BRD4 = molecular target: T3, BRD4 (Homo sapiens, UniProt O60885); experiment: Western blot of endogenous BRD4 in HEK293T cells; format: cell-based; details: 20 μM KB02-JQ1; 10 μM MG132 or 1 μM MLN4924
T3 construct: degradation of endogenous BRD4 in HEK293T cells; endogenous in cells; host or cells: HEK293T (A10, A16); HEK293 DCAF16+/+ and DCAF16-/- clones (A11)
Method: as §3

FLAG-FKBP12 = molecular target: T4, FLAG-FKBP12 (Homo sapiens, UniProt P62942); experiment: Anti-FLAG western blot of stably expressed cytosolic FKBP12 (FLAG-FKBP12) in HEK293T cells; format: cell-based; details: lenalidomide-SLF positive control, 4 or 24 h
T4 construct: expressed in transfected cells; host or cells: HEK293T (lentiviral transduction, puromycin selection)
T4 sequence (P62942 whole entry): as the sequence (P62942 whole entry) above
Excerpt: as §1
as §2, with “HEK293T cells stably expressing pCDH empty vector were generated in parallel as control.” left out
Cells were collected and lysed in 1% NP-40 lysis buffer (25 mM Tris-HCl pH 7.4, 150 mM NaCl, 10% glycerol, 1% Nonidet P-40) with complete protease inhibitor cocktail (Roche). […] Protein concentration was determined by DC assay (Bio-Rad). […] The chemiluminescence signal in membrane was recorded after developing in ECL or ECL plus western blotting detection reagent using CL-XPosure film (Thermo Scientific). Relative band intensities were quantified using ImageJ.

co-immunoprecipitation of HA-DCAF16 with FLAG-FKBP12_NLS [2]: DCAF16 was not co-immunoprecipitated
SMILES: CCC(=O)N1CCCc2cc(OCC(=O)NCCOCCOCCC(=O)Nc3cccc([C@@H](CCc4ccc(OC)c(OC)c4)OC(=O)[C@@H]4CCCCN4C(=O)C(=O)C(C)(C)CC)c3)ccc21 [C-KB02-SLF, (R)-3-(3,4-dimethoxyphenyl)-1-(3-(3-(2-(2-(2-((1-propionyl-1,2,3,4-tetrahydroquinolin-6-yl)oxy)acetamido)ethoxy)ethoxy)propanamido)phenyl)propyl (S)-1-(3,3-dimethyl-2-oxopentanoyl)piperidine-2-carboxylate]
nuclear FKBP12 (FKBP12_NLS) protein level (FLAG-FKBP12_NLS [1]; HEK293T): Reductions in FKBP12_NLS were not observed

FKBP12_NLS level in cells treated with the separate components of KB02-SLF (FLAG-FKBP12_NLS [1]; HEK293T, 1.5 μM, 8 h): FKBP12_NLS was not reduced
SMILES: COc1ccc2c(c1)CCCN2C(=O)CCl [KB02, reference compound]
IC50 (HEK293T cells): 23 ± 1.2 µM

co-immunoprecipitation of HA-DCAF16 with FLAG-FKBP12_NLS [2]: co-immunoprecipitated with HA-DCAF16
SMILES: CCC(C)(C)C(=O)C(=O)N1CCCC[C@H]1C(=O)O[C@H](CCc1ccc(OC)c(OC)c1)c1cccc(NC(=O)CCOCCOCCOCCOCCNC(=O)COc2ccc3c(c2)CCCN3C(=O)CCl)c1 [KB02-PEG4-SLF, (R)-1-(3-(1-((1-(2-chloroacetyl)-1,2,3,4-tetrahydroquinolin-6-yl)oxy)-2-oxo-6,9,12,15-tetraoxa-3-azaoctadecan-18-amido)phenyl)-3-(3,4-dimethoxyphenyl)propyl (S)-1-(3,3-dimethyl-2-oxopentanoyl)piperidine-2-carboxylate]
degradation of FLAG-FKBP12_NLS in MDA-MB-231 cells (FLAG-FKBP12_NLS [3]; 1 μM): degradation of stably expressed FLAG-FKBP12_NLS

nuclear FKBP12 (FKBP12_NLS) protein level (FLAG-FKBP12_NLS [1]; HEK293T): did not support FKBP12_NLS degradation
co-immunoprecipitation of HA-DCAF16 with FLAG-FKBP12_NLS [2]: DCAF16 was not co-immunoprecipitated
SMILES: CCC(C)(C)C(=O)C(=O)N1CCCC[C@H]1C(=O)O[C@H](CCc1ccc(OC)c(OC)c1)c1cccc(NC(=O)CCOCCOCCNC(=O)CCNC(=O)c2cc(NC(=O)CCl)cc(C(F)(F)F)c2)c1 [KB03-SLF, (R)-1-(3-(1-(3-(2-chloroacetamido)-5-(trifluoromethyl)phenyl)-1,5-dioxo-9,12-dioxa-2,6-diazapentadecan-15-amido)phenyl)-3-(3,4-dimethoxyphenyl)propyl (S)-1-(3,3-dimethyl-2-oxopentanoyl)piperidine-2-carboxylate]

nuclear FKBP12 (FKBP12_NLS) protein level (FLAG-FKBP12_NLS [1]; HEK293T): did not support FKBP12_NLS degradation
co-immunoprecipitation of HA-DCAF16 with FLAG-FKBP12_NLS [2]: DCAF16 was not co-immunoprecipitated
SMILES: C=CC(=O)N(c1ccc(Br)cc1)c1ccc(C(=O)NCCOCCOCCOCCC(=O)Nc2cccc([C@@H](CCc3ccc(OC)c(OC)c3)OC(=O)[C@@H]3CCCCN3C(=O)C(=O)C(C)(C)CC)c2)cc1 [KB05-SLF, (R)-1-(3-(1-(4-(N-(4-bromophenyl)acrylamido)phenyl)-1-oxo-5,8,11-trioxa-2-azatetradecan-14-amido)phenyl)-3-(3,4-dimethoxyphenyl)propyl (S)-1-(3,3-dimethyl-2-oxopentanoyl)piperidine-2-carboxylate]

SMILES: CC(C)C[C@@H](C=O)NC(=O)[C@H](CC(C)C)NC(=O)[C@H](CC(C)C)NC(=O)OCc1ccccc1 [MG132, reference compound] (Cbz-Leu-Leu-Leu-aldehyde)
effect of inhibitor on KB02-SLF-mediated loss of FKBP12_NLS (FLAG-FKBP12_NLS [1]; 8 h): blocked
effect of inhibitor on degradation of FLAG-FKBP12_NLS in MDA-MB-231 cells (FLAG-FKBP12_NLS [3]): blocked
effect of inhibitor on KB02-JQ1-mediated BRD4 degradation (BRD4): blocked

effect of inhibitor on KB02-SLF-mediated loss of FKBP12_NLS (FLAG-FKBP12_NLS [1]; 8 h): blocked
effect of inhibitor on degradation of FLAG-FKBP12_NLS in MDA-MB-231 cells (FLAG-FKBP12_NLS [3]): blocked
effect of inhibitor on KB02-JQ1-mediated BRD4 degradation (BRD4): blocked
SMILES: NS(=O)(=O)OC[C@@H]1C[C@@H](n2ccc3c(N[C@H]4CCc5ccccc54)ncnc32)C[C@@H]1O [MLN4924, reference compound]

nuclear FKBP12 degradation (FLAG-FKBP12_NLS [1]; HEK293T, lenalidomide-SLF positive control, 4 or 24 h): degraded
cytosolic FKBP12 degradation (FLAG-FKBP12): degraded
SMILES: CCC(C)(C)C(=O)C(=O)N1CCCC[C@H]1C(=O)O[C@H](CCc1ccc(OC)c(OC)c1)c1cccc(NC(=O)CCCC(=O)NCCCCC(=O)Nc2cccc3c2CN(C2CCC(=O)NC2=O)C3=O)c1 (stereo partly drawn) [lenalidomide-SLF, (1R)-3-(3,4-dimethoxyphenyl)-1-(3-(5-((5-((2-(2,6-dioxopiperidin-3-yl)-1-oxoisoindolin-4-yl)amino)-5-oxopentyl)amino)-5-oxopentanamido)phenyl)propyl (2S)-1-(3,3-dimethyl-2-oxopentanoyl)piperidine-2-carboxylate, reference compound]
